Measurements taken from patent publication US9718822B2, “Macrocyclic compounds as Trk kinase inhibitors” (Array BioPharma, Inc., priority 2010, dated 2017).
Read-outs that look alike come from different tables or passages of the source.

Legend:
[1] = target: His-tagged recombinant human TrkA (cytoplasmic domain) (Homo sapiens (Human), UniProt P04629); test: TrkA Binding Assay (LanthaScreen Eu Kinase Binding Assay)
Protocol: The ability of a compound to bind to TrkA was measured by Invitrogen's LanthaScreen™ Eu Kinase Binding Assay. […] After a 60-minute incubation at 22° C., the reaction was measured using the EnVision via TR-FRET dual wavelength detection, and the POC was calculated from the emission ratio. The compound dose response data was fit to a 4-parameter logistic model and IC50 was defined as the concentration of compound at 50 POC.

[2] = target: histidine-tagged recombinant human TrkA, cytoplasmic domain (Homo sapiens (Human), UniProt P04629); test: TrkA ELISA Assay; format: biochemical; details: read-out: TrkA Elisa Enzyme Assay IC50; note: 2.5 nM TrkA
Sequence of histidine-tagged recombinant human TrkA, cytoplasmic domain (P04629 440-796): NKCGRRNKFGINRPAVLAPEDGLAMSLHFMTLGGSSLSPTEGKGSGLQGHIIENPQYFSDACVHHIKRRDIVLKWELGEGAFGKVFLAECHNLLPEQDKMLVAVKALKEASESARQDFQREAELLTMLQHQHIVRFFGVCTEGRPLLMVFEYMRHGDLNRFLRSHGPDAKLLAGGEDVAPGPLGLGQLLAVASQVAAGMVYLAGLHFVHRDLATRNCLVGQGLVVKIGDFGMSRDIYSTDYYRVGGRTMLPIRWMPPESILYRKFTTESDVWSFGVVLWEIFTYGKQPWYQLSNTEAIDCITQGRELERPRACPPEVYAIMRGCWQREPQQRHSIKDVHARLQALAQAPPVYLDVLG
Protocol: An enzyme-linked immunosorbant assay (ELISA) was used to assess TrkA kinase activity in the presence of inhibitors. Immulon 4HBX 384-well microtiter plates (Thermo part #8755) were coated with a 0.025 mg/mL solution of poly (Glu, Ala, Tyr; 6:3:1; Sigma P3899). […] The assay buffer consisted of 25 mM MOPS pH 7.5, 0.005% (v/v) Triton X-100 and 5 mM MgCl2. The reaction mixture was removed from the plate by washing with PBS containing 0.1% (v/v) Tween 20. The phosphorylated reaction product was detected using 0.2 μg/mL of a phosphotyrosine specific monoclonal antibody (clone PY20) conjugated to horseradish peroxidase in conjunction with the TMB Peroxidase Substrate System (KPL). After the addition of 1M phosphoric acid, the chromogenic substrate color intensity was quantitated via absorbance at 450 nm. IC50 values were calculated using either a 4 or 5-parameter logistic curve fit.
Table 1 provides averaged IC50 values for compounds of the invention when tested in this assay.

[3] = averaged IC50 values, TR-FRET, 60-minute incubation at 22° C., 2% DMSO final

Sequence of His-tagged recombinant human TrkA (cytoplasmic domain) (P04629 440-796): as above

Row | SMILES | IC50 [2] [nM] | IC50 [1] [nM] | further results
1 | O=C1NC[C@H](O)COc2ccc(F)cc2C2CC(F)(F)CN2c2ccn3ncc1c3n2 (single isomer, unassigned; diastereomer 1) [45 Diastereomer 1] | – | – | IC50 [1, 3]: 1 to 100 nM
2 | O=C1NC[C@H](O)COc2ccc(F)cc2C2CC(F)(F)CN2c2ccn3ncc1c3n2 (single isomer, unassigned; diastereomer 2) [45 Diastereomer 2] | – | – | IC50 [1, 3]: 1 to 100 nM
3 | O=C1NCCCOc2cccc(n2)[C@H]2CCCN2c2ccn3ncc1c3n2 [Example 2, (6R)-12-oxa-2,16,20,21,24,26-hexaazapentacyclo[16.5.2.1^7,11.0^2,6.0^21,25]hexacosa-1(24),7(26),8,10,18(25),19,22-heptaen-17-one] | 1 to 100 | 1 to 100 | –
4 | O=C1NCC(O)COc2ncc(F)cc2[C@H]2CCCN2c2ccn3ncc1c3n2 (stereo partly drawn) [Example 6, (6R)-9-fluoro-15-hydroxy-13-oxa-2,11,17,21,22,25-hexaazapentacyclo-[17.5.2.0^2,6.0^7,12.0^22,26]hexacosa-1(25),7,9,11,19(26),20,23-heptaen-18-one] | – | – | IC50 ([2]; averaged IC50 values, […] TrkA, 500 μM ATP, 25 minutes at ambient temperature): 1 to 100 nM; IC50 [1, 3]: 1 to 100 nM
5 | O=C1NC[C@@H](O)Cn2cc(F)cc(c2=O)[C@H]2CCCN2c2ccn3ncc1c3n2 [Example 8] | 1 to 100 | 1 to 100 | –
6 | O=C1NCCCCOc2ncc(F)cc2[C@H]2CCCN2c2ccn3ncc1c3n2 [Example 10, (6R)-9-fluoro-13-oxa-2,11,18,22,23,26-hexaazapentacyclo[18.5.2.0^2,6.0^7,12.0^23,27]heptacosa-1(26),7,9,11,20(27),21,24-heptaen-19-one] | 1 to 100 | 1 to 100 | –
7 | O=C1NCCCNc2ncc(F)cc2[C@H]2CCCN2c2ccn3ncc1c3n2 [Example 13, (6R)-9-fluoro-2,11,13,17,21,22,25-heptaazapentacyclo[17.5.2.0^2,6.0^7,12.0^22,26]hexacosa-1(25),7,9,11,19(26),20,23-heptaen-18-one] | 1 to 100 | – | –
8 | O=C1NC[C@@H](F)Cn2cc(F)cc(c2=O)[C@H]2CCCN2c2ccn3ncc1c3n2 [Example 17, (6R,13R)-9,13-difluoro-2,11,15,19,20,23-hexaazapentacyclo[15.5.2.1^7,11.0^2,6.0^20,24]pentacosa-1(23),7,9,17(24),18,21-hexaene-16,25-dione] | 1 to 100 | – | –
9 | O=C1NCC(F)(F)COc2ncc(F)cc2[C@H]2CCCN2c2ccn3ncc1c3n2 [Example 19, (6R)-9,15,15-trifluoro-13-oxa-2,11,17,21,22,25-hexaazapentacyclo[17.5.2.0^2,6.0^7,12.0^22,26]hexacosa-1(25),7,9,11,19(26),20,23-heptaen-18-one] | 1 to 100 | 1 to 100 | –
10 | Fc1ccc2c(c1)[C@H]1CCCN1c1ccn3ncc(c3n1)CNCCO2 [Example 21, (6R)-9-fluoro-13-oxa-2,16,20,21,24-pentaazapentacyclo[16.5.2.0^2,6.0^7,12.0^21,25]pentacosa-1(24),7,9,11,18(25),19,22-heptaene] | 100 to 3000 | – | –
11 | CC(=O)N1CCOc2ccc(F)cc2[C@H]2CCCN2c2ccn3ncc(c3n2)C1 [Example 22, 1-[(6R)-9-fluoro-13-oxa-2,16,20,21,24-pentaazapentacyclo[16.5.2.0^2,6.0^7,12.0^21,25]pentacosa-1(24),7,9,11,18(25),19,22-heptaen-16-yl]ethan-1-one] | 1 to 100 | – | –
12 | CS(=O)(=O)N1CCOc2ccc(F)cc2[C@H]2CCCN2c2ccn3ncc(c3n2)C1 [Example 25, (6R)-9-fluoro-16-methanesulfonyl-13-oxa-2,16,20,21,24-pentaazapentacyclo[16.5.2.0^2,6.0^7,12.0^21,25]pentacosa-1(24),7,9,11,18(25),19,22-heptaene] | 1 to 100 | – | –
13 | C[C@H]1CNC(=O)c2cnn3ccc(nc23)N2CCC[C@@H]2c2cc(F)cn(c2=O)C1 [Example 35, (6R,13S)-9-fluoro-13-methyl-2, 11, 15,19,20,23-hexaazapentacyclo [15.5.2.1^7,11.0^2,6.0^20,24]pentacosa-1(23),7,9,17(24),18,21-hexaene-16,25-dione] | – | 1 to 100 | –
14 | O=C1NC[C@H](O)COc2ccc(F)cc2[C@@H]2C[C@@H](O)CN2c2ccn3ncc1c3n2 [Example 41-B, (4R,6S,15S)-9-fluoro-4,15-dihydroxy-13-oxa-2,17,21,22,25-pentaazapentacyclo [17.5.2.0^2,6.0^7,12.0^22,26]hexacosa-1(25),7(12),8,10,19(26),20,23-heptaen-18-one] | – | – | IC50 [1, 3]: 100 to 3000 nM
15 | O=C1NCCCOc2ccc(F)cc2[C@H]2C[C@@H](O)CN2c2ccn3ncc1c3n2 [Example 42, (4R,6R)-9-fluoro-4-hydroxy-13-oxa-2,17,21,22,25-pentaazapentacyclo [17.5.2.0^2,6.0^7,12.0^22,26]hexacosa-1(25),7(12),8,10,19(26),20,23-heptaen-18-one] | – | 1 to 100 | –
16 | O=C1NCCCOc2ccc(F)cc2[C@@H]2C[C@@H](O)CN2c2ccn3ncc1c3n2 [Example 42-B, (4R,6S)-9-fluoro-4-hydroxy-13-oxa-2,17,21,22,25-pentaazapentacyclo [17.5.2.0^2,6.0^7,12.0^22,26]hexacosa-1(25),7(12),8,10,19(26),20,23-heptaen-18-one] | – | – | IC50 [1, 3]: 100 to 3000 nM
17 | O=C1NCCOc2ccc(F)cc2[C@@H]2C[C@@H](O)CN2c2ccn3ncc1c3n2 [Example 43-B, (4R,6S)-9-fluoro-4-hydroxy-13-oxa-2,16,20,21,24-pentaazapentacyclo [16.5.2.0^2,6.0^7,2.0^21,25]pentacosa-1(24),7,9,11,18(25),19,22-heptaen-17-one] | – | – | IC50 [1, 3]: 100 to 3000 nM
18 | O=C1NC[C@@H](O)COc2ccc(F)cc2[C@H]2C[C@@H](O)CN2c2ccn3ncc1c3n2 [Example 44, (4R,6R,15R)-9-fluoro-4,15-dihydroxy-13-oxa-2,17,21,22,25-pentaazapentacyclo [17.5.2.0^2,6.0^7,12.0^22,26]hexacosa-1(25),7(12),8,10,19(26),20,23-heptaen-18-one] | – | 1 to 100 | –

The next lines start with results.

Row | IC50 [2] [nM] | IC50 [1] [nM] | SMILES | further results
19 | 1 to 100 | 1 to 100 | O=C1NCCCCn2cc(F)cc(c2=O)[C@H]2CCCN2c2ccn3ncc1c3n2 [Example 11, (6R)-9-fluoro-2,11,16,20,21,24-hexaazapentacyclo[16.5.2.1^7,11.0^2,6.0^21,25]hexacosa-1(24),7,9,18(25),19,22-hexaene-17,26-dione] | –
20 | 1 to 100 | – | O=C1NCCNc2ncc(F)cc2[C@H]2CCCN2c2ccn3ncc1c3n2 [Example 12, (6R)-9-fluoro-2,11,13,16,20,21,24-heptaazapentacyclo[16.5.2.0^2,6.0^7,12.0^21,25]pentacosa-1(24),7,9,11,18(25),19,22-heptaen-17-one] | –
21 | 100 to 3000 | – | Fc1ccc2c(c1)[C@H]1CCCN1c1ccn3ncc(c3n1)CNCCCO2 [Example 24, (6R)-9-fluoro-13-oxa-2,17,21,22,25-pentaazapentacyclo[17.5.2.0^2,6.0^7,12.0^22,26]hexacosa-1(25),7,9,11,19(26),20,23-heptaene] | –
22 | 1 to 100 | – | CS(=O)(=O)N1CCCOc2ccc(F)cc2[C@H]2CCCN2c2ccn3ncc(c3n2)C1 [Example 27, (6R)-9-fluoro-7-methanesulfonyl-13-oxa-2,17,21,22,25-pentaazapentacyclo[17.5.2.0^2,6.0^7,12.0^22,26]hexacosa-1(25),7,9,11,19(26),20,23-heptaene] | –
23 | 1 to 100 | – | CCNC(=O)N1CCCOc2ccc(F)cc2[C@H]2CCCN2c2ccn3ncc(c3n2)C1 [Example 28] | –
24 | 1 to 100 | – | CCNC(=O)N1CCOc2ccc(F)cc2[C@H]2CCCN2c2ccn3ncc(c3n2)C1 [Example 29, (6R)—N-ethyl-9-fluoro-13-oxa-2,16,20,21,24-pentaazapentacyclo-[16.5.2.0^2,6.0^7,12.0^21,25]pentacosa-1(24),7,9,11,18(25),19,22-heptaene-16-carboxamide] | –
25 | – | 1 to 100 | CC1(C)CNC(=O)c2cnn3ccc(nc23)N2CCC[C@@H]2c2cc(F)cnc2OC1 [Example 36, (6R)-9-fluoro-15,15-dimethyl-13-oxa-2,11,17,21,22,25-hexaazapentacyclo [17.5.2.0^2,6.0^7,12.0^22,26]hexacosa-1(25),7,9,11,19(26),20,23-heptaen-18-one] | –
26 | – | 1 to 100 | CC1(C)CNC(=O)c2cnn3ccc(nc23)N2CCC[C@@H]2c2cc(F)cn(c2=O)C1 [Example 40, (6R)-9-fluoro-13,13-dimethyl-2,11,15,19,20,23-hexaazapentacyclo [15.5.2.1^7,11.0^2,6.0^20,24]pentacosa-1(23),7,9,17(24),18,21-hexaene-16,25-dione] | –
27 | – | 1 to 100 | O=C1NCCOc2ccc(F)cc2[C@H]2C[C@@H](O)CN2c2ccn3ncc1c3n2 [Example 43, (4R,6R)-9-fluoro-4-hydroxy-13-oxa-2,16,20,21,24-pentaazapentacyclo [16.5.2.0^2,6.0^7,12.0^21,25]pentacosa-1(24),7,9,11,18(25),19,22-heptaen-17-one] | –
28 | – | 1 to 100 | O=C1NC[C@@H](O)COc2ccc(F)cc2[C@@H]2C[C@@H](O)CN2c2ccn3ncc1c3n2 [Example 44-B, (4R,6S,15R)-9-fluoro-4,15-dihydroxy-13-oxa-2,17,21,22,25-pentaazapentacyclo [17.5.2.0^2,6.0^7,12.0^22,26]hexacosa-1(25),7(2),8,10,19(26),20,23-heptaen-18-one] | –
